These results are taken from ChEMBL document CHEMBL1275282, “Synthesis, characterization, oxidative degradation, antibacterial activity and acetylcholinesterase/butyrylcholinesterase inhibitory effects of some new phosphorus(V) hydrazides” (Eur J Med Chem, 2010).

The target in the test is Cholinesterases; ACHE & BCHE (Homo sapiens) (UniProt P06276+P22303). Briefly: Selectivity ratio of IC50 for human BChE over IC50 for human AChE by Ellman method. Background: In Ellman's method for cholinesterases, released thiocholine reacts with DTNB.
Sequence of Cholinesterases; ACHE & BCHE (Homo sapiens) (P06276 whole entry, looked up): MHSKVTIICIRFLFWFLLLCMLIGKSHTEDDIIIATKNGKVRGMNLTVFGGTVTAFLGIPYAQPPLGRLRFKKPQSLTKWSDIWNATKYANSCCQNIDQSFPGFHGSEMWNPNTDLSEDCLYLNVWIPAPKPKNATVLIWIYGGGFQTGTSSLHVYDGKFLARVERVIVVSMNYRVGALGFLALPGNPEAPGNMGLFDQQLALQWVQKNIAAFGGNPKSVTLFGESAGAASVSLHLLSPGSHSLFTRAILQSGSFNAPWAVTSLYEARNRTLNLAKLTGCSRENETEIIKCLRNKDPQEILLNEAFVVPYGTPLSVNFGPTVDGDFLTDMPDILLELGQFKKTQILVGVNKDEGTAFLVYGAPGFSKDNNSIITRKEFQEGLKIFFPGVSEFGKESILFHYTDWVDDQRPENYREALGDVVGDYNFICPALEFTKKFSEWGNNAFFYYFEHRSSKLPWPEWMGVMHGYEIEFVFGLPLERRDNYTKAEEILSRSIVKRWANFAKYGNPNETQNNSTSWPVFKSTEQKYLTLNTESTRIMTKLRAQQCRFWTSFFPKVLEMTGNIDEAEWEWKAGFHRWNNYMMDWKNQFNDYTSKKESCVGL
Sequence of Cholinesterases; ACHE & BCHE (Homo sapiens) (P22303 whole entry, looked up): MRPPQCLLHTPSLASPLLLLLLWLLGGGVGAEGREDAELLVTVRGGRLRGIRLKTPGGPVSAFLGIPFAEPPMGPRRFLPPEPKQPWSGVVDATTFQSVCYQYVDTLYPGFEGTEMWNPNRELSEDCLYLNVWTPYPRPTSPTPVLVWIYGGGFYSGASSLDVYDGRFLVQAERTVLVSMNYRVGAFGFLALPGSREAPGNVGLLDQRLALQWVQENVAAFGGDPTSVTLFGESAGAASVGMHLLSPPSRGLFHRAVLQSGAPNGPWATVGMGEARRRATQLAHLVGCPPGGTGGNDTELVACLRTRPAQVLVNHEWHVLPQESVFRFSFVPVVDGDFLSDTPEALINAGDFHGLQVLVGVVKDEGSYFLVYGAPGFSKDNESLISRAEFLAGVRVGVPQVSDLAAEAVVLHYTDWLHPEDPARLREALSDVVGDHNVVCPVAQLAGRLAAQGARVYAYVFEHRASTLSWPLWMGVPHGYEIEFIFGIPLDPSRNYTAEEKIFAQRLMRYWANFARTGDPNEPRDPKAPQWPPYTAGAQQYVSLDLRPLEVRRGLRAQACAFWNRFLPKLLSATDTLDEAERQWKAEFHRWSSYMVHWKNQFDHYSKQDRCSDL

As for `O=P(O)(NN1CCCCC1)Oc1ccccc1`, the Ratio IC50 was determined as 4.
